Data set [1] concerns purified human TFH cells. The data set can be described thus: TFH stimulation: viability and cytokine expression. It counts as cell-based. From the text: FIG. 6A-I. Increased TFH cell recruitment supports to HVEM deficient lymphoma B cells. FIG. 6A, FACS identification and sorting of human GC derived TFH cells based on the markers CD3pos, CD4pos, CD25neg, PD1hi, CXCRShi, left: isotypic control; right; staining with anti-BTLA antibody; FIG. 6B and FIG. 6C, FACS measurement (FIG. 6B) and quantification (FIG. 6C) of intra-tumoral TFH cells in control and HVEM deficient murine lymphomas; FIG. 6D and FIG. 6E, qRT-PCR measurement of IL21 (FIG. 6D), and IL4 (FIG. 6E) in sorted intra-tumoral T cells (N=?); FIG. 6F, qRT-PCR measurement of the LTa, LTb, and TNFa mRNA expression in T cells isolated from the spleens of vector and shHVEM mice * p<?; G-I, qRT-PCR measurement of TNFa (FIG. 6G), LTa (FIG. 6H), and LTb (FIG. 61) in cell sorted TFH (n=4) cultured with anti-CD3/anti-CD28 Mabs in presence or not of soluble HVEM (solHVEM, 10 μg/ml), each symbol represents an independent TFH sample.
FIG. 13A-E. Analysis of TFH cell function in HVEM deficient lymphomas. FIG. 13A and FIG. 13B, qRT-PCR measurement of the receptors for IL21 (IL-21ra; A), and IL4 (IL4ra; B) in purified lymphoma B cells; FIG. 13C, Viability of purified murine TFH cells (samples: n=4) that were cultured for 3 days with or without (UN) stimulation by anti-CD3/anti-CD28 in the presence or absence of the soluble HVEM ectodomain (solHVEM: 10 μg/ml); FIG. 13D, Cell-Sorted GC-TFH cultured with anti-CD3/anti-CD28 Mabs in presence or not of solHVEM; production of CXCL13(FIG. 13E) and IL-21(FIG. 13F) evaluated by ELISA.
The stroma-derived cytokine CXCL13 is the main chemo-attractant for CXCRSpos follicular T helper cells (TFH) (Crotty, 2014). […] This increase in TFH cell numbers is associated with an elevated expression of the TFH derived cytokines. […] Further, it was observed that the increased production of IL21 and IL4 by TFH cells was matched with an elevated expression of the IL21 and IL4 receptors on FACS purified lymphoma B cells from HVEM deficient lymphomas (p<0.01) (FIGS. 13A and 13B). Human TFH cells are characterized by high-level expression of the BTLA receptor (FIG. 13C) and experiments were performed to test whether HVEM directly affected these tumor infiltrating T cells. […]
Purified TFH were cultured in IMDM 10% FCS with or without anti-CD3 (0.6 μg/mL) and anti-CD28 (0.6 m/mL, Pelicluster Sanquin) MAbs in the presence or not of solHVEM (10 μg/mL). After 3 days of culture, the number of viable TFH was evaluated by flow cytometry using count beads (Flow Count, Beckman Coulter) and Topro-3 staining (Invitrogen). CXCL13 was quantified in culture supernatants by ELISA (R&D Systems) according to manufacturer's instructions.

For data set [2], the system named is cell lines that expressed high levels of BTLA. The data set can be described thus: Immunoblot of ERK phosphorylation in treated cell lines. The format is cell-based. The settings on record: 5 ug/ml; cell lines with high BTLA. The method, then: FIG. 19. In vitro effect of sTNFRSF14. Immunoblots of cell lines that were treated with 5 ug/ml of sTNFRSF14. Blots were probed as indicated.
Immunoblots were performed using whole cell lysates or supernatants as previously described (Wendel et al., 2004). In brief, 30 μg protein/sample was resolved on SDS-PAGE gels and transferred to Immobilon-P membranes (Millipore). Antibodies were against, pSyk (Cell Signaling Technologies #2712), Syk (Cell Signaling Technologies #2710), pBTK (Cell Signaling Technologies #5082), BTK (Cell Signaling Technologies #3533) pERK (Cell Signaling Technologies #9102), ERK (Cell Signaling Technologies #4370) and Tubulin (Sigma-Aldrich). Enhanced chemiluminescence was used for detection (ECL; GE Healthcare).
In general terms: A western blot detects proteins with antibodies after separation by electrophoresis.

[3] abbreviates: with or without anti-CD3/anti-CD28, solHVEM 10 μg/mL, 3 days.

For “solHVEM: Leu39-Val202 soluble HVEM ectodomain polypeptide of SEQ ID NO. 8”, in data set [1] (solHVEM 10 μg/ml), the “expression of LTa in TFH cells” value is on record as “reductions” and the “expression of LTb in TFH cells” value is on record as “reductions”. Further, in data set [1] (setting [3]), the TFH cell numbers entry was “did not affect” and the TFH cell viability result is recorded as “did not affect”.

B1: sTNFRSF14: Pro37-Val202 soluble HVEM ectodomain polypeptide of SEQ ID NO. 6 (protein, listed as Homo sapiens)
chain: PALPSCKEDEYPVGSECCPKCSPGYRVKEACGELTGTVCEPCPPGTYIAHLNGLSKCLQCQMCDPAMGLRASRNCSRTENAVCGCSPGHFCIVQDGDHCAACRAYATSSPGQRVQKGGTESQDTLCQNCPPGTFSPNGTLEECQHQTKCSWLVTKAGAGTSSSHWV
In the case of B1, the ERK phosphorylation levels entry in data set [2] is listed as “clearly reduced”.

These data come from patent US11261232B2, “TNFRSF14 / HVEM proteins and methods of use thereof” (MEMORIAL SLOAN KETTERING CANCER CENTER, priority 2015, dated 2022).
